Test results from patent publication US20240199661A1, “BICYCLIC HETEROARYL PHOSPHONATE DERIVATIVES AS ECTONUCLEOTIDE PYROPHOSPHATASE PHOSPHODIESTERASE 1 INHIBITORS” (RIBOSCIENCE LLC, priority 2021, published 2024).
Structures can show the parent of a compound that is named as a salt.

How the values were obtained:
[1] = biological target: T1, ENPP1 (Homo sapiens, UniProt P22413); test: Measurement of pNP-TMP hydrolysis by ENPP1 (enzyme activity assay, absorbance at 405 nm); assay type: biochemical; conditions: purified ENPP1, 500 μM pNP-TMP, Km 232 μM; Ki from IC50 by Cheng-Prusoff
T1 sequence (P22413 1-925): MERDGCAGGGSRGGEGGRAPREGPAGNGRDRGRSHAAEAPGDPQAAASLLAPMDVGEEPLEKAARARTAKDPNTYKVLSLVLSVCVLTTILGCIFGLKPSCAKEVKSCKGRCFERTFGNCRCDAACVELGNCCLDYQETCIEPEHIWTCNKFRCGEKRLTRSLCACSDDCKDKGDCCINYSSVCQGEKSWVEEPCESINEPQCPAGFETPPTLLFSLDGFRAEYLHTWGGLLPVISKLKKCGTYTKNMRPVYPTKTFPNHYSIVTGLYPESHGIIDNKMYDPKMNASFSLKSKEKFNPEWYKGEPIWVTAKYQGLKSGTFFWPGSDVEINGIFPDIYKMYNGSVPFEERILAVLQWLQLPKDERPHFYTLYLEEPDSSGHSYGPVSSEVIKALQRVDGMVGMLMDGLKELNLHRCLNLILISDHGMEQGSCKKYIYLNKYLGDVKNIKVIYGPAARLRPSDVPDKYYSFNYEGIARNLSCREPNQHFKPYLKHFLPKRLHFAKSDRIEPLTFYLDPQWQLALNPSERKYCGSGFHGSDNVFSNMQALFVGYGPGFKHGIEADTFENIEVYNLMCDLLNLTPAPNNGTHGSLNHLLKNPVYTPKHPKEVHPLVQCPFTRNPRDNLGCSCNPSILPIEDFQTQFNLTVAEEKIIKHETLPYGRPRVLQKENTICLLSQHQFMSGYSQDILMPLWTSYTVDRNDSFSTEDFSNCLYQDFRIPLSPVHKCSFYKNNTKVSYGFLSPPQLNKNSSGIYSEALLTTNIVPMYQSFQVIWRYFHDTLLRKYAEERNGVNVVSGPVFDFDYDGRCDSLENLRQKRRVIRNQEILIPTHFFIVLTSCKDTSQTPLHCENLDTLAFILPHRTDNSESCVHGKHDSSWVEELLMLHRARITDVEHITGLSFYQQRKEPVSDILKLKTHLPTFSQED
Procedure: Measurement of pNP-TMP Hydrolysis by ENPP1
p-Nitrophenyl thymidine 5′-monophosphate (pNP-TMP) is a synthesized substrate for ENPP1. The ENPP1 enzyme activity assay with pNP-TMP substrate was conducted as follows:
First, in a 60 μl reaction, 7.5 ng purified ENPP1 was mixed with compounds of Formula (I) (test compound) ranging from 13.7 pM to 10 μM. Incubation of ENPP1 with compounds was set at 25° C. for 10 min. Reactions with DMSO only (with ENPP1 but no compound) gave the fastest reaction (MAX Activity). For each compound dilution, wells with assay buffer (50 mM Tris-HCl, pH8.8, 250 mM NaCl, 0.1 mg/ml BSA, 1% DMSO) only but no ENPP1 were included as controls for subtraction of test compound derived absorbance at 405 nm.
Second, after the 10 minutes ENPP1 and test compound incubation the assay was initiated by transferring 50 μl of the above mentioned ENPP1/test compound reaction into 50 μl of 1 mM pNP-TMP in assay buffer results in a 100 μl total reaction in clear bottom 96 well plates. Absorbance at 405 nm was recorded immediately in kinetic mode by PerkinElmer 2300 Enspire multimode plate reader.
For each inhibitor, the specific ENPP1 activity was calculated using the following equation: ENPP1 activity (pmol/min/μg)=Adjusted Vmax (OD405 nm/min)×conversion factor (pmol/OD405 nm)/amount of enzyme (μg)
Adjusted Vmax=V0×(Km+(S))/(S). In this assay, Km=232 μM, (S)=500 μM. Adjusted Vmax=1.464×V0.
V0=(OD405 nm with ENPP1−OD405 nm ENPP1 blank)/minutes. OD405 nm was plotted, with blank subtracted, against time (minutes), the initial linear rate is V0. […]
The conversion factor (pmol/OD405 nm), was determined by plotting the amount of standard, 4-Nitrophenol (Sigma-Aldrich, Catalog #241326), against absorbance at 405 nm. The slope is the conversion factor. The percent ENPP1 activity for each sample was calculated using the following equation:
% enzyme activity=sample enzyme activity/MAX Activity×100%.
To determine the IC50 for each compound, compound concentration values and percent enzyme activity values were inserted into GraphPad Prism (GraphPad Prism version 7.0 for Windows, GraphPad Software, La Jolla California USA, www.graphpad.com), and Prism's Transform analysis was used to convert the x-axis values (compound concentration) to logarithms. A sigmoidal variable slope nonlinear regression analysis was performed using the following equation: Y=Bottom+(Top−Bottom)/(1+10^((Log IC50−X)*HillSlope)).
Ki values for each compound were calculated from the observed IC50 from GraphPad analysis using the Cheng-Prusoff equation: Ki=IC50/(1+(S)/KM). (S) here is 500 μM and KM is determined to be 232 μM.

[2] = system: HGS tumor model; test: Anti-tumor activity in HGS tumor model; assay type: in vivo

| Compound | Ki [1] | antitumor activity ([2]; 20/kg of compound) | tumor size ([2]; animals treated with 20/kg of compound, day 42 after inoculation (vehicle 645)) |
| --- | --- | --- | --- |
| CCOP(=O)(O)CCCC1CCN(c2ncnc3c(C(=O)NC)c[nH]c23)CC1 [Compound 10, ethoxy(3-[1-[7-(methylcarbamoyl)-5H-pyrrolo[3,2-d]pyrimidin-4-yl]-piperidin-4-yl]propyl)phosphinic acid] | > 10000 nM | – | – |
| CC(C)c1nc(NCc2ccc(P(=O)(O)O)cc2)c2c(cnn2C)n1 [Compound 17, 4-(((5-isopropyl-1-methyl-1H-pyrazolo[4,3-d]pyrimidin-7-yl)amino)methyl)phenyl-phosphonic acid] | < 1000 nM | – | – |
| CNC(=O)c1c[nH]c2c(N3CCC(CCP(=O)(O)O)CC3)ncnc12 [Compound 6, 2-[1-[7-(methylcarbamoyl)-5H-pyrrolo[3,2-d]pyrimidin-4-yl]-piperidin-4-yl]ethylphosphonic acid] | < 1000 nM | – | – |
| CNC(=O)c1c[nH]c2c(N3CCC(CP(=O)(O)O)CC3)ncnc12 [Compound 9, [1-[7-(methylcarbamoyl)-5H-pyrrolo[3,2-d]pyrimidin-4-yl]piperidin-4-yl]methylphosphonic acid] | < 1000 nM | – | – |
| CNC(=O)c1c[nH]c2c(NCc3ccc(P(=O)(O)O)cc3)ncnc12 [Compound 3, 4-([[7-(methylcarbamoyl)-5H-pyrrolo[3,2-d]pyrimidin-4-yl]amino]-methyl)phenylphosphonic acid] | < 1000 nM | – | – |
| CC(C)c1nc(NCc2ccc(P(=O)(O)O)cc2)c2[nH]ncc2n1 [Compound 18, 4-[([5-isopropyl-1H-pyrazolo[4,3-d]pyrimidin-7-yl]amino)methyl]phenylphosphonic acid formic acid salt] | < 1000 nM | – | – |
| CNC(=O)c1c[nH]c2c(NCc3ccc(CP(=O)(O)O)cc3)ncnc12 [Compound 4, [4-([[7-(methylcarbamoyl)-5H-pyrrolo[3,2-d]pyrimidin-4-yl]amino]-methyl)phenyl]methylphosphonic acid] | < 1000 nM | – | – |
| CC(=O)Nc1csc2c(NCc3ccc(P(=O)(O)O)cc3)ncnc12 [Compound 15, 4-[([7-acetamidothieno[3,2-d]pyrimidin-4-yl]amino)methyl]-phenylphosphonic acid] | < 100 nM | – | – |
| CCOP(=O)(CC1CCN(c2ncnc3c(C(=O)NC)c[nH]c23)CC1)OCC (single isomer, unassigned) [Compound 7, diethyl [1-[7-(methylcarbamoyl)-5H-pyrrolo[3,2-d]pyrimidin-4-yl]-piperidin-4-yl]methylphosphonate] | > 10000 nM | – | – |
| C=CC(=O)N1CCN(CCCn2c(=O)c(-c3c(Cl)c(OC)cc(OC)c3Cl)cc3cnc(NC)nc32)CC1 [8-(3-(4-acryloylpiperazin-1-yl)propyl)-6-(2,6-dichloro-3,5-dimethoxyphenyl)-2-(methylamino)pyrido[2,3-d]pyrimidin-7(8H)-one] | – | significant antitumor activity and induced tumor regression | 55 mm3 |
| CCOP(=O)(O)c1ccc(CNc2ncnc3c(C(=O)NC)c[nH]c23)cc1 [Compound 2, ethoxy(4-([[7-(methylcarbamoyl)-5H-pyrrolo[3,2-d]pyrimidin-4-yl]-amino]methyl)phenyl)phosphinic acid] | > 10000 nM | – | – |
| CNC(=O)c1c[nH]c2c(N3CCC(CCCP(=O)(O)O)CC3)ncnc12 [Compound 11, 3-[1-[7-(methylcarbamoyl)-5H-pyrrolo[3,2-d]pyrimidin-4-yl]-piperidin-4-yl]propylphosphonic acid] | < 10000 nM | – | – |
| Cn1ncc2ncnc(NCc3ccc(P(=O)(O)O)cc3)c21 [Compound 1, 4-[([1-methylpyrazolo[4,3-d]pyrimidin-7-yl]amino)methyl]-phenyl-phosphonic acid] | < 100 nM | – | – |
| O=P(O)(O)c1ccc(CNc2ncnc3ccsc23)cc1 [Compound 16, 4-([thieno[3,2-d]pyrimidin-4-ylamino]methyl)phenyl-phosphonic acid] | < 100 nM | – | – |
| O=P(O)(O)c1ccc(CNc2ncnc3cn[nH]c23)cc1 [Compound 12, 4-([1H-pyrazolo[4,3-d]pyrimidin-7-ylamino]methyl)phenyl-phosphonic acid] | < 100 nM | – | – |
| NC(=O)c1n[nH]c2c(NCc3ccc(P(=O)(O)O)cc3)ncnc12 [Compound 14, 4-[([3-carbamoyl-1H-pyrazolo[4,3-d]pyrimidin-7-yl]amino)methyl]-phenylphosphonic acid] | < 1000 nM | – | – |
